Molecular target: T1, recombinant human FAAH (rhFAAH) (Homo sapiens, UniProt O00519)
T1 construct: purchased Cayman Chemical (Ann Arbor, MI, USA)
T1 sequence (O00519 1-579): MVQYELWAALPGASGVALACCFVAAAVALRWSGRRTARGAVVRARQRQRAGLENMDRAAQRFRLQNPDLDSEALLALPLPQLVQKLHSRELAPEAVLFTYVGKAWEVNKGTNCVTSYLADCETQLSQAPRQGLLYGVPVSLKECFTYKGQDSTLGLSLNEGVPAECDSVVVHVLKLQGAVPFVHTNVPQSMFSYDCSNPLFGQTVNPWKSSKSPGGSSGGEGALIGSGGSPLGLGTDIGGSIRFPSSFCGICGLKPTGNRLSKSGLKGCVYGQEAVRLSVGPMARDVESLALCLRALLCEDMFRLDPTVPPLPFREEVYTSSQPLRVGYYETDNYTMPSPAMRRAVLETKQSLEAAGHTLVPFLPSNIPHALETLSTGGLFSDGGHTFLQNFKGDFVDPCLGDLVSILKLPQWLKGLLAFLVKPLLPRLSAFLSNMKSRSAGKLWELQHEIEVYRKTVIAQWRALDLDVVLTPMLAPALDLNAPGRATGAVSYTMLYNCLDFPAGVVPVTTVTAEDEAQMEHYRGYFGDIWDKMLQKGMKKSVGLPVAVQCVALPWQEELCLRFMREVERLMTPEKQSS
Test: FAAH Substrate Evaluation (formation of acid metabolite from amide prodrug)
Format: biochemical
Conditions: 0.5 ng/μL rhFAAH, 1 μM test compound, Tris-EDTA buffer pH 8.0, 0.1% BSA, room temperature, 0-60 minutes, LC-MS/MS
Description: Purified recombinant human FAAH (rhFAAH) was purchased from Cayman Chemical (Ann Arbor, MI, USA). The total volume for each incubation was 400 μL containing a final 0.5 ng/μL rhFAAH, 1 μM test compound, 1.25% ethanol or 1 μM PF-3845 (FAAH inhibitor), and 0.1% bovine serum albumin in Tris-EDTA buffer at pH 8.0). The positive control was LL-341001. The incubation was conducted at the room temperature. At 0, 5, 15, 30 and 60 minutes, an aliquot of 30 μL reaction mixtures was removed and mixed with 300 μL acetonitrile containing 5 ng/mL terfenadine and 10 ng/ml tolbutamide as internal standards to quench the reaction. The resulting mixture was centrifuged at 4000 rpm, 4° C. for 15 minutes, and 100 μL supernatant was ready for LC-MS/MS analysis to measure the formation of acid metabolite.
Acquity Ultra Performance LC system from Waters was used for sample analysis. The chromatography was performed on a reverse phase Kinetex 2.6 μm C18 column, 2.1×30 mm, 100 Å. The mobile phase A comprised of 0.1% formic acid in water and mobile phase B comprised of 0.1% formic acid in acetonitrile with a 2-min run time at the flow rate of 0.8 mL/min for the acid metabolite from positive control or a 1.5 min run time at the flow rate of 0.9 mL/min for the acid metabolite of test compounds. The mass spectrometer (API-5500 and API Q Trap 4000 Applied Biosystems/MDS SCIEX Instruments, Framingham, MA, USA) was operated under ESI positive or negative ion MRM mode.
The formation of acid metabolite was monitored and quantified using one calibration point of 1 μM. The observed rate constant (ke) for the acid metabolite formation was calculated by plotting the metabolite concentration versus time of incubation with the slope being ke and is shown in Table 1.

Q: C[C@H]1Cc2cc(OCCCC(F)(F)F)ccc2C=C1CN1CC(C(=O)Nc2cncnc2)C1 [Compound 3, (S)-1-((3-methyl-6-(4,4,4-trifluorobutoxy)-3,4-dihydronaphthalen-2-yl)methyl)-N-(pyrimidin-5-yl)azetidine-3-carboxamide] was tested. Which “ke (observed rate constant for the acid metabolite formation)” value (“ke” for short) did it give?
A: A (ke is more than or equal to 1.0)

Q: How did the “ke” value turn out when C[C@H](CO)NC(=O)C1CN(CC2=Cc3ccc(OCCCC(F)(F)F)cc3C[C@@H]2C)C1 [Compound 14, N—((R)-1-hydroxypropan-2-yl)-1-(((S)-3-methyl-6-(4,4,4-trifluorobutoxy)-3,4-dihydronaphthalen-2-yl)methyl)azetidine-3-carboxamide] was run?
A: B (ke is less than 1.0 and more than 0)

Q: Which “ke” value does the source give for COCCNC(=O)C1CN(CC2=Cc3ccc(OCCCC(F)(F)F)cc3C[C@@H]2C)C1 [Compound 5, (S)—N-(2-methoxyethyl)-1-((3-methyl-6-(4,4,4-trifluorobutoxy)-3,4-dihydronaphthalen-2-yl)methyl)azetidine-3-carboxamide] here?
A: A (ke is more than or equal to 1.0)

Q: Which “ke” value does the source give for C[C@H]1Cc2cc(OCCCC(F)(F)F)ccc2C=C1CN1CC(C(=O)NCCCF)C1 [Compound 22, (S)-N-(3-fluoropropyl)-1-((3-methyl-6-(4,4,4-trifluorobutoxy)-3,4-dihydro-naphthalen-2-yl)methyl)azetidine-3-carboxamide] here?
A: B (ke is less than 1.0 and more than 0)

Q: For C[C@H](O)CNC(=O)C1CN(CC2=Cc3ccc(OCCCC(F)(F)F)cc3C[C@@H]2C)C1 [Compound 15, N—((S)-2-hydroxypropyl)-1-(((S)-3-methyl-6-(4,4,4-trifluorobutoxy)-3,4-dihydronaphthalen-2-yl)methyl)azetidine-3-carboxamide], which “ke” value is on record?
A: B (ke is less than 1.0 and more than 0)

Q: COC[C@H](C)NC(=O)C1CN(CC2=Cc3ccc(OCCCC(F)(F)F)cc3C[C@@H]2C)C1 [Compound 18, N—((S)-1-methoxypropan-2-yl)-1-(((S)-3-methyl-6-(4,4,4-trifluorobutoxy)-3,4-dihydronaphthalen-2-yl)methyl)azetidine-3-carboxamide] was tested. Which “ke” value did it give?
A: B (ke is less than 1.0 and more than 0)

Q: For C[C@H]1Cc2cc(OCCCC(F)(F)F)ccc2C=C1CN1CC(C(=O)NCC(C)(C)C)C1 [Compound 6, (S)-1-((3-methyl-6-(4,4,4-trifluorobutoxy)-3,4-dihydronaphthalen-2-yl)methyl)-N-neopentylazetidine-3-carboxamide], which “ke” value is on record?
A: B (ke is less than 1.0 and more than 0)

Q: For CCCNC(=O)C1CN(CC2=Cc3ccc(OCCCC(F)(F)F)cc3C[C@@H]2C)C1 [Compound 10, (S)-1-((3-methyl-6-(4,4,4-trifluorobutoxy)-3,4-dihydronaphthalen-2-yl)methyl)-N-propylazetidine-3-carboxamide], which “ke” value is on record?
A: A (ke is more than or equal to 1.0)

Q: How did the “ke” value turn out when CC[C@H](C)NC(=O)C1CN(CC2=Cc3ccc(OCCCC(F)(F)F)cc3C[C@@H]2C)C1 [Compound 17, N—((S)-sec-butyl)-1-(((S)-3-methyl-6-(4,4,4-trifluorobutoxy)-3,4-dihydronaphthalen-2-yl)methyl)azetidine-3-carboxamide] was run?
A: B (ke is less than 1.0 and more than 0)

Q: Which “ke” value does the source give for CC(C)CNC(=O)C1CN(CC2=Cc3ccc(OCCCC(F)(F)F)cc3C[C@@H]2C)C1 [Compound 7, (S)—N-isobutyl-1-((3-methyl-6-(4,4,4-trifluorobutoxy)-3,4-dihydronaphthalen-2-yl)methyl)azetidine-3-carboxamide] here?
A: A (ke is more than or equal to 1.0)

Q: C[C@H]1Cc2cc(OCCCC(F)(F)F)ccc2C=C1CN1CC(C(=O)NC2CC2)C1 [Compound 20, (S)—N-cyclopropyl-1-((3-methyl-6-(4,4,4-trifluorobutoxy)-3,4-dihydronaphthalen-2-yl)methyl)azetidine-3-carboxamide] was tested. Which “ke” value did it give?
A: A (ke is more than or equal to 1.0)

Q: With C[C@H]1Cc2cc(OCCCC(F)(F)F)ccc2C=C1CN1CC(C(=O)N(C)CC(C)(C)C)C1 [Compound 9, (S)—N-methyl-1-((3-methyl-6-(4,4,4-trifluorobutoxy)-3,4-dihydronaphthalen-2-yl)methyl)-N-neopentylazetidine-3-carboxamide] as the molecule, how does the “ke” value read?
A: C (ke is 0)

Q: With C[C@H]1Cc2cc(OCCCC(F)(F)F)ccc2C=C1CN1CC(C(=O)Nc2ccnnc2)C1 [Compound 4, (S)-1-((3-methyl-6-(4,4,4-trifluorobutoxy)-3,4-dihydronaphthalen-2-yl)methyl)-N-(pyridazin-4-yl)azetidine-3-carboxamide] as the molecule, how does the “ke” value read?
A: A (ke is more than or equal to 1.0)

Q: How did the “ke” value turn out when C[C@H]1Cc2cc(OCCCC(F)(F)F)ccc2C=C1CN1CC(C(=O)NCC2CC2)C1 [Compound 19, (S)—N-(cyclopropylmethyl)-1-((3-methyl-6-(4,4,4-trifluorobutoxy)-3,4-dihydronaphthalen-2-yl)methyl)azetidine-3-carboxamide] was run?
A: A (ke is more than or equal to 1.0)

Q: Which “ke” value does the source give for CNC(=O)C1CN(CC2=Cc3ccc(OCCCC(F)(F)F)cc3C[C@@H]2C)C1 [Compound 12, (S)—N-methyl-1-((3-methyl-6-(4,4,4-trifluorobutoxy)-3,4-dihydronaphthalen-2-yl)methyl)azetidine-3-carboxamide] here?
A: B (ke is less than 1.0 and more than 0)

Q: With C[C@H]1Cc2cc(OCCCC(F)(F)F)ccc2C=C1CN1CC(C(=O)N(C)C)C1 [Compound 11, (S)—N,N-dimethyl-1-((3-methyl-6-(4,4,4-trifluorobutoxy)-3,4-dihydronaphthalen-2-yl)methyl)azetidine-3-carboxamide] as the molecule, how does the “ke” value read?
A: B (ke is less than 1.0 and more than 0)

Q: How did the “ke” value turn out when C[C@H]1Cc2cc(OCCCC(F)(F)F)ccc2C=C1CN1CC(C(=O)Nc2cccnc2)C1 [Compound 13, (S)-1-((3-methyl-6-(4,4,4-trifluorobutoxy)-3,4-dihydronaphthalen-2-yl)methyl)-N-(pyridin-3-yl)azetidine-3-carboxamide] was run?
A: A (ke is more than or equal to 1.0)

Q: With C[C@H]1Cc2cc(OCCCC(F)(F)F)ccc2C=C1CN1CC(C(=O)NCCC(F)(F)F)C1 [Compound 25, (S)-1-((3-methyl-6-(4,4,4-trifluorobutoxy)-3,4-dihydronaphthalen-2-yl)methyl)-N-(3,3,3-trifluoropropyl) azetidine-3-carboxamide] as the molecule, how does the “ke” value read?
A: A (ke is more than or equal to 1.0)

Q: How did the “ke” value turn out when C[C@@H](CO)NC(=O)C1CN(CC2=Cc3ccc(OCCCC(F)(F)F)cc3C[C@@H]2C)C1 [Compound 2, N—((S)-1-hydroxypropan-2-yl)-1-(((S)-3-methyl-6-(4,4,4-trifluorobutoxy)-3,4-dihydronaphthalen-2-yl)methyl)azetidine-3-carboxamide] was run?
A: B (ke is less than 1.0 and more than 0)

Q: With C[C@@H](O)CNC(=O)C1CN(CC2=Cc3ccc(OCCCC(F)(F)F)cc3C[C@@H]2C)C1 [Compound 21, N—((R)-2-hydroxypropyl)-1-(((S)-3-methyl-6-(4,4,4-trifluorobutoxy)-3,4-dihydronaphthalen-2-yl)methyl)azetidine-3-carboxamide] as the molecule, how does the “ke” value read?
A: B (ke is less than 1.0 and more than 0)

Q: For C[C@H]1Cc2cc(OCCCC(F)(F)F)ccc2C=C1CN1CC(C(=O)Nc2ccncc2)C1 [Compound 24, (S)-1-((3-methyl-6-(4,4,4-trifluorobutoxy)-3,4-dihydronaphthalen-2-yl)methyl)-N-(pyridin-4-yl) azetidine-3-carboxamide], which “ke” value is on record?
A: A (ke is more than or equal to 1.0)

Q: With CCCN(C)C(=O)C1CN(CC2=Cc3ccc(OCCCC(F)(F)F)cc3C[C@@H]2C)C1 [Compound 16, (S)—N-methyl-1-((3-methyl-6-(4,4,4-trifluorobutoxy)-3,4-dihydronaphthalen-2-yl)methyl)-N-propylazetidine-3-carboxamide] as the molecule, how does the “ke” value read?
A: C (ke is 0)
